Data published in patent US6037335A, “Phosphonate-nucleotide ester derivatives” (Mitsubishi Chemical Corporation, priority 1993, dated 2000).
Read-outs that look alike come from different tables or passages of the source.

Key:
[1] = test system: HBV; assay: Inhibition of HBV growth (HBV-DNA synthesis in HB611 cells, southern blotting); format: cell-based; set-up: dose or concentration left out as unconfirmed; details: Hepatitis B virus, 408 h, DNA recovered day 17
Experimental: (§1) HB611 cells (recombinant human lever cancer cell producing HBV, 2×10^4) was incubated on Dulbecco ME medium containing bovine fetal serum, streptomycin ([…]), penicillin (100 IU/ml) and G-418 (0.2 mg/ml) at 37° C. On the 2nd and 5th days of cultivation, the medium was changed, then the media containing specimens at final concentration of 10 mM were substituted on the 8th, 11th and 14th days. On 17 days of cultivation, DNA of the cell was recovered. The amount of HBV-DNA was measured by southern blotting, and inhibition of HBV-DNA synthesis in the cell was determined. In addition, the concentration of the compound required for 50% death of the HB611 cells was determined.

[2] = Concentration required for 50% death of HB611 cells; format: cell-based; details: human, read-out: LD50 of HB611 cell
Experimental: as §1

[3] = test system: HBV; assay: Inhibition of HBV growth in rat serum upon oral administration (HB611 cells cultured with 5% serum); format: in vivo; details: Hepatitis B virus, read-out: HBV-DNA Synthesis Inhibition; for inhibition at 500 mg/kg: single oral dose 0.5 g/kg
Experimental: (§2) Inhibition of HBV growth in rat or mouse serum upon oral administration
(§3) Groups of rats (3 rats per group) were received single oral dose of specimen (1 g/kg or 0.5 g/kg), bled at 1 hour after administration and serum was prepared. Separately, groups of mice (3 mice per group) were received single oral dose of specimen (0.3 g/kg), bled at 30 minutes after administration and serum was prepared.
(§4) HB611 cells (2×10^4) were incubated on Dulbecco ME medium containing 10% bovine fetal serum, streptomycin ([…]), penicillin (100 IU/ml) and G-418 (0.2 mg/ml) at 37° C. On the 2nd and 5th days of cultivation, the medium was changed, then substituted with a medium containing 5% of the above serum (rat or mouse serum after oral administration of the specimen) on the 8th, 11th and 14th day, and DNA of the cell was recovered on the 17th days of cultivation. The amount of HBV-DNA was measured by southern blotting, and intracellular HBV-DNA synthesis inhibition was determined. For reference, the same experiment was conducted on PMEA.

[4] = test system: herpes simplex viruses type-I (HSV-1); details: literature; cited from earlier work
[5] = test system: herpes simplex viruses type-II (HSV-2); details: literature; cited from earlier work
[6] = test system: human immunodeficiency virus (HIV); details: literature; cited from earlier work
[7] = test system: hepatitis B virus; details: literature; cited from earlier work
[8] = test system: HBV; assay: Inhibition of HBV growth in mouse serum upon oral administration (HB611 cells cultured with 5% serum); format: in vivo; details: Hepatitis B virus, HB611, 0.5 h, single oral dose 0.3 g/kg, serum 30 minutes after administration, 5% serum in medium, read-out: HBV-DNA Synthesis Inhibition
Experimental: as §2, §3, §4

[9] = HB611, Rat, serum 1 hour after administration, 5% serum in medium
[10] = HB611, Rat, single oral dose 1 g/kg, serum 1 hour after administration, 5% serum in medium

Nc1ncnc2c1ncn2CCOCP(=O)(OCCOc1ccccc1)OCCOc1ccccc1 [Example 15, 9-[[2-bis(2-phenoxyethyl)phosphonylmethoxy]ethyl]adenine]
inhibition [1]: 59.7% | CC50 [2]: 174 µM | inhibition at 500 mg/kg [3, 9]: 38.5%

Nc1nc2c(ncn2CCOCP(=O)(OCC(F)(F)F)OCC(F)(F)F)c(=S)[nH]1 [Example 23, 9-[2-[bis(2,2,2-trifluoroethyl)phosphonylmethoxy]ethyl]-6-thioguanine]
inhibition [1]: 86.1%

Nc1nc(N)c2ncn(CCOCP(=O)(O)O)c2n1 [PMDAP, 9-(2-phosphonylmethoxy)ethyl-2,6-diaminopurine]
reported to be effective on herpes simplex virus type-I [4]: effective | reported to be effective on herpes simplex virus type-II [5]: effective | reported to be effective on human immunodeficiency virus [6]: effective | reported to be effective on hepatitis B virus [7]: effective

Nc1nc(Cl)c2ncn(CCOCP(=O)(OCC(F)(F)F)OCC(F)(F)F)c2n1 [Example 3, 9-[2-[bis(2,2,2-trifluoroethyl)phosphonylmethoxy]ethyl]-2-amino-6-chloropurine]
inhibition [1]: 99.9% | CC50 [2]: 399 µM | inhibition at 300 mg/kg [8]: 99.9%

Nc1c2ncn(CCOCP(=O)(OCC(F)(F)F)OCC(F)(F)F)c2nc[n+]1[O-] [Example 22]
inhibition [1]: 76.2% | inhibition at 300 mg/kg [8]: 15.2%

Nc1nc2c(ncn2CCOCP(=O)(OCC(F)(F)F)OCC(F)(F)F)c(=O)[nH]1 [Example 20]
inhibition [1]: 99.9% | inhibition at 300 mg/kg [8]: 99.9%

Cc1ccc(Sc2nc(O)nc3c2ncn3CCOCP(=O)(OCC(F)(F)F)OCC(F)(F)F)cc1 [Example 25, 9-[2-[bis(2,2,2-trifluoroethyl)phosphonylmethoxy]ethyl]-2-hydroxy-6-p-toluylthiopurine]
inhibition [1]: 99.9%

COP(=O)(COCCn1cnc2c(N)nc(N)nc21)OCC(F)(F)F (centres unmarked) [Example 13, 9-[2-[methyl(2,2,2-trifluoloethyl)phosphonylmethoxy]ethyl]-2,6-diaminopurine]
CC50 [2]: > 1000 µM | inhibition at 1000 mg/kg ([3]; HB611, po, 1 h): 77.7%

Nc1nc2ncn(CCOCP(=O)(OCC(F)(F)F)OCC(F)(F)F)c2c(=O)[nH]1 [Example 21, 7-[2-[bis(2,2,2-trifluoroethyl)phosphonylmethoxy]ethyl]guanine]
inhibition [1]: 71.3%

Nc1nc(N)c2ncn(CCOCP(=O)(OCC(F)(F)F)OCC(F)(F)F)c2n1 [Example 2, 9-[2-[bis(2,2,2-trifluoroethyl)phosphonylmethoxy]ethyl]-2,6-diaminopurine]
inhibition [1]: 99.9% | CC50 [2]: 840 µM | inhibition at 1000 mg/kg [3, 10]: 71.9%

Nc1nc(N)c2nnn(CCOCP(=O)(OCC(F)(F)F)OCC(F)(F)F)c2n1 [Example 5, 9-[2-[bis(2,2,2-trifluoroethyl)phosphonylmethoxy]ethyl]-8-aza-2,6-diaminopurine]
inhibition [1]: 97.2% | inhibition at 300 mg/kg [8]: 87.2%

Nc1ncnc2c1ncn2CCOCP(=O)(O)O [PMEA, 9-(2-phosphonylmethoxy)ethyladenine]
inhibition at 1000 mg/kg ([3]; HB611, po, 1 h): 35.5% | reported to be effective on herpes simplex virus type-I [4]: effective | reported to be effective on herpes simplex virus type-II [5]: effective | reported to be effective on human immunodeficiency virus [6]: effective | reported to be effective on hepatitis B virus [7]: effective

COP(=O)(COCCn1cnc2c(N)ncnc21)OCC(F)(F)F (centres unmarked) [Example 12, 9-[2-[methyl(2,2,2-trifluoloethyl)phosphonylmethoxy]ethyl]adenine]
CC50 [2]: > 1000 µM | inhibition at 1000 mg/kg ([3]; HB611, po, 1 h): 92.9%

Cc1ccc(Sc2nc(N)nc3c2ncn3CCOCP(=O)(OCC(F)(F)F)OCC(F)(F)F)cc1 [Example 24, 9-[2-[bis(2,2,2-trifluoroethyl)phosphonylmethoxy]ethyl]-2-amino-6-p-toluylthiopurine]
inhibition [1]: 99.9%

Nc1ncnc2c1ncn2CCOCP(=O)(OCCOCc1ccccc1)OCCOCc1ccccc1 [Example 16, 9-[[2-bis(2-benzyloxyethyl)phosphonylmethoxy]ethyl]adenine]
inhibition [1]: 57.8% | CC50 [2]: 178 µM | inhibition at 500 mg/kg [3, 9]: 43.6%

Cn1c(N)nc2c(ncn2CCOCP(=O)(OCC(F)(F)F)OCC(F)(F)F)c1=O [Example 26, 9-[2-[bis(2,2,2-trifluoroethyl)phosphonylmethoxy]ethyl]-1-methylguanine]
inhibition [1]: 99.9%

Nc1ncnc2c1ncn2CCOCP(=O)(OCCO)OCCO [Reference Example 2, 9-[[2-bis(2-hydroxyethyl)phosphonylmethoxy]ethyl]adenine, reference compound]
inhibition [1]: 31% | CC50 [2]: > 1000 µM | inhibition at 500 mg/kg [3, 9]: 0%

COCCOP(=O)(COCCn1cnc2c(N)ncnc21)OCCOC [Example 14]
inhibition [1]: 55% | CC50 [2]: > 1000 µM | inhibition at 500 mg/kg [3, 9]: 25.4%

Nc1ncnc2c1ncn2CCOCP(=O)(OCC(F)(F)F)OCC(F)(F)F [Example 1, 9-[2-[bis(2,2,2-trifluoroethyl)phosphonylmethoxy]ethyl]adenine]
inhibition [1]: 91.5% | CC50 [2]: > 1000 µM | inhibition at 1000 mg/kg [3, 10]: 89.9%

CC(=O)NCCOP(=O)(COCCn1cnc2c(N)ncnc21)OCCNC(C)=O [Reference Example 1, 9-[[2-bis(2-acetamidethyl)phosphonylmethoxy]ethyl]adenine, reference compound]
CC50 [2]: > 1000 µM | inhibition at 500 mg/kg [3, 9]: 0%

CC(=O)OCCOP(=O)(COCCn1cnc2c(N)ncnc21)OCCOC(C)=O [Example 17, 9-[[2-bis(2-acetoxyethyl)phosphonylmethoxy]ethyl]adenine]
inhibition [1]: 66.2% | CC50 [2]: > 1000 µM

CCCCC(=O)OCCOP(=O)(COCCn1cnc2c(N)ncnc21)OCCOC(=O)CCCC [Example 18, 9-[[2-bis(2-valeryloxyethyl)phosphonylmethoxy]ethyl]adenine]
inhibition [1]: 73.4% | CC50 [2]: 47 µM | inhibition at 500 mg/kg [3, 9]: 61.4%

Nc1nc(Cl)c2c(ncn2CCOCP(=O)(OCC(F)(F)F)OCC(F)(F)F)n1 [Example 4, 7-[2-[bis(2,2,2-trifluoroethyl)phosphonylmethoxy]ethyl]-2-amino-6-chloropurine]
inhibition at 300 mg/kg [8]: 36.3%
